Data taken from US20200022370A1, “MICROBIOCIDAL OXADIAZOLE DERIVATIVES” (SYNGENTA PARTICIPATIONS AG, priority 2016, published 2020).

Experiments:
[1] = test system: Puccinia recondita f. Sp. Tritici; experiment: Puccinia recondita f. sp. tritici / wheat / leaf disc preventative (brown rust); type: in vivo; conditions: foliar, 200 ppm in the applied formulation, wheat leaf segments cv. Kanzler, inoculated 1 day after application, vs untreated, 7 to 9 days after application, read-out: disease control
Description: Leaf disks or leaf segments of various plant species are cut from plants grown in a greenhouse. The cut leaf disks or segments are placed in multiwell plates (24-well format) onto water agar. The leaf disks are sprayed with a test solution before (preventative) or after (curative) inoculation. Compounds to be tested are prepared as DMSO solutions (max. 10 mg/ml) which are diluted to the appropriate concentration with 0.025% Tween20 just before spraying. The inoculated leaf disks or segments are incubated under defined conditions (temperature, relative humidity, light, etc.) according to the respective test system. A single evaluation of disease level is carried out 3 to 14 days after inoculation, depending on the pathosystem. Percent disease control relative to the untreated check leaf disks or segments is then calculated.
Example 1: Fungicidal Activity Against Puccinia recondita f. Sp. Tritici/Wheat/Leaf Disc Preventative (Brown Rust)
Wheat leaf segments cv. Kanzler were placed on agar in multiwell plates (24-well format) and sprayed with the Formulated test compound diluted in water. The leaf disks were inoculated with a spore suspension of the fungus 1 day after application. The inoculated leaf segments were incubated at 19° C. and 75% relative humidity (rh) under a light regime of 12 hours light/12 hours darkness in a climate cabinet and the activity of a compound was assessed as percent disease control compared to untreated when an appropriate level of disease damage appears in untreated check leaf segments (7 to 9 days after application).
The following compounds at 200 ppm in the applied Formulation give at least 80% disease control in this test when compared to untreated control leaf disks under the same conditions, which show extensive disease development.

[2] = test system: Glomerella lacenarium (Colletotrichum lacenarium); experiment: Glomerella lacenarium (Colletotrichum lacenarium) liquid culture / cucumber / preventative (anthracnose); type: cell-based; conditions: 20 ppm, liquid culture in PDB, 24° C., inhibition of growth measured photometrically 3 to 4 days after application, vs untreated, read-out: disease control
Description: Mycelia fragments or conidia suspensions of a fungus prepared either freshly from liquid cultures of the fungus or from cryogenic storage, are directly mixed into nutrient broth. DMSO solutions of the test compound (max. 10 mg/ml) are diluted with 0.025% Tween20 by a factor of 50 and 10 μl of this solution is pipetted into a microtiter plate (96-well format). The nutrient broth containing the fungal spores/mycelia fragments is then added to give an end concentration of the tested compound. The test plates are incubated in the dark at 24° C. and 96% relative humidity. The inhibition of fungal growth is determined photometrically after 2 to 7 days, depending on the pathosystem, and percent antifungal activity relative to the untreated check is calculated.
Example 4: Fungicidal Activity Against Glomerella lacenarium (Colletotrichum lacenarium) Liquid Culture/Cucumber/Preventative (Anthracnose)
Conidia of the fungus from cryogenic storage are directly mixed into nutrient broth (PDB-potato dextrose broth). After placing a (DMSO) solution of test compound into a microtiter plate (96-well format), the nutrient broth containing the fungal spores is added. The test plates are incubated at 24° C. and the inhibition of growth is measured photometrically 3 to 4 days after application.
The following compounds at 20 ppm in the applied Formulation give at least 80% disease control in this test when compared to untreated control under the same conditions, which show extensive disease development.

Q: How did the pest or weed control at 200 ppm [1] turn out when `O=C(Cc1cccnc1)Nc1ccc(-c2noc(C(F)(F)F)n2)cc1` [Compound 1.84, 2-(3-pyridyl)-N-[4-[5-(trifluoromethyl)-1,2,4-oxadiazol-3-yl]phenyl]acetamide] was run?
A: ≥ 80%

Q: What about the inhibition of growth at 20 ppm [2] of the same molecule?
A: ≥ 80%

Q: `O=C(Nc1ccc(-c2noc(C(F)(F)F)n2)cc1)C(F)F` [Compound 1.120, 2,2-difluoro-N-[4-[5-(trifluoromethyl)-1,2,4-oxadiazol-3-yl]phenyl]acetamide] was tested. Which pest or weed control at 200 ppm [1] did it give?
A: ≥ 80%

Q: And the inhibition of growth at 20 ppm [2]?
A: ≥ 80%

Q: With `O=C(Cc1cc(C(F)(F)F)ccn1)Nc1ccc(-c2noc(C(F)(F)F)n2)cc1` [Compound 1.115, N-[4-[5-(trifluoromethyl)-1,2,4-oxadiazol-3-yl]phenyl]-2-[4-(trifluoromethyl)-2-pyridyl]acetamide] as the molecule, how does the pest or weed control at 200 ppm [1] read?
A: ≥ 80%

Q: What about the inhibition of growth at 20 ppm [2] of the same molecule?
A: ≥ 80%

Q: Which results are given for `COCCOCC(=O)Nc1ccc(-c2noc(C(F)(F)F)n2)cc1` [Compound 1.122, 2-(2-methoxyethoxy)-N-[4-[5-(trifluoromethyl)-1,2,4-oxadiazol-3-yl]phenyl]acetamide]?
A: pest or weed control at 200 ppm [1]: ≥ 80%; inhibition of growth at 20 ppm [2]: ≥ 80%

Q: `COC(=O)CCC(=O)Nc1ccc(-c2noc(C(F)(F)F)n2)cc1` [Compound 1.83, methyl 4-oxo-4-[4-[5-(trifluoromethyl)-1,2,4-oxadiazol-3-yl]anilino]butanoate] was tested. Which pest or weed control at 200 ppm [1] did it give?
A: ≥ 80%

Q: And the inhibition of growth at 20 ppm [2]?
A: ≥ 80%

Q: Which pest or weed control at 200 ppm [1] does the source give for `O=C(Nc1ccc(-c2noc(C(F)(F)F)n2)cc1)C1CCSCC1` [Compound 1.96, N-[4-[5-(trifluoromethyl)-1,2,4-oxadiazol-3-yl]phenyl] tetrahydrothiopyran-4-carboxamide] here?
A: ≥ 80%

Q: What about the inhibition of growth at 20 ppm [2] of the same molecule?
A: ≥ 80%

Q: What does the source list for `O=C(Nc1ccc(-c2noc(C(F)(F)F)n2)cc1)C1CCC1` [Compound 2.9, N-[4-[5-(trifluoromethyl)-1,2,4-oxadiazol-3-yl]phenyl] cyclobutane-carboxamide]?
A: pest or weed control at 200 ppm [1]: ≥ 80%; inhibition of growth at 20 ppm [2]: ≥ 80%

Q: Which inhibition of growth at 20 ppm [2] does the source give for `CN(C(=O)c1ccccc1Cl)c1ccc(-c2noc(C(F)(F)F)n2)cc1` [Compound 1.134, 2-chloro-N-methyl-N-[4-[5-(trifluoromethyl)-1,2,4-oxadiazol-3-yl]phenyl]benzamide] here?
A: ≥ 80%

Q: With `C=CCC(=O)Nc1ccc(-c2noc(C(F)(F)F)n2)cc1` [Compound 1.94, N-[4-[5-(trifluoromethyl)-1,2,4-oxadiazol-3-yl]phenyl]but-3-enamide] as the molecule, how does the pest or weed control at 200 ppm [1] read?
A: ≥ 80%

Q: What about the inhibition of growth at 20 ppm [2] of the same molecule?
A: ≥ 80%

Q: Which pest or weed control at 200 ppm [1] does the source give for `O=C(Nc1ccc(-c2noc(C(F)(F)F)n2)cc1)C1OCCO1` [Compound 1.113, N-[4-[5-(trifluoromethyl)-1,2,4-oxadiazol-3-yl]phenyl]-1,3-dioxolane-2-carboxamide] here?
A: ≥ 80%

Q: And the inhibition of growth at 20 ppm [2]?
A: ≥ 80%

Q: With `CN(C(=O)CC1CC1)c1ccc(-c2noc(C(F)(F)F)n2)cc1` [Compound 2.26, 2-cyclopropyl-N-methyl-N-[4-[5-(trifluoromethyl)-1,2,4-oxadiazol-3-yl]phenyl]acetamide] as the molecule, how does the inhibition of growth at 20 ppm [2] read?
A: ≥ 80%

Q: Which results are given for `CC(CO)(CCl)C(=O)Nc1ccc(-c2noc(C(F)(F)F)n2)cc1` (stereo not drawn) [Compound 1.103, 2-(chloromethyl)-3-hydroxy-2-methyl-N-[4-[5-(trifluoromethyl)-1,2,4-oxadiazol-3-yl]phenyl] propanamide]?
A: pest or weed control at 200 ppm [1]: ≥ 80%; inhibition of growth at 20 ppm [2]: ≥ 80%

Q: For `CON(C)C(=O)Nc1ccc(-c2noc(C(F)(F)F)n2)nc1` [Compound 1.65, 1-methoxy-1-methyl-3-[6-[5-(trifluoromethyl)-1,2,4-oxadiazol-3-yl]-3-pyridyl]urea], which inhibition of growth at 20 ppm [2] is on record?
A: ≥ 80%

Q: For `O=C(NCC(F)(F)F)Nc1ccc(-c2noc(C(F)(F)F)n2)cc1` [Compound 2.22, 1-(2,2,2-trifluoroethyl)-3-[4-[5-(trifluoromethyl)-1,2,4-oxadiazol-3-yl]phenyl]urea], which inhibition of growth at 20 ppm [2] is on record?
A: ≥ 80%

Q: How did the pest or weed control at 200 ppm [1] turn out when `CC(=O)Nc1ccc(CC(=O)Nc2ccc(-c3noc(C(F)(F)F)n3)cc2)cc1` [Compound 1.26, 2-(4-acetamidophenyl)-N-[4-[5-(trifluoromethyl)-1,2,4-oxadiazol-3-yl]phenyl]acetamide] was run?
A: ≥ 80%

Q: With `CC(C)(C)OC(=O)NC(C(=O)Nc1ccc(-c2noc(C(F)(F)F)n2)cc1)c1ccccc1` (stereo not drawn) [Compound 1.18, tert-butyl N-[2-oxo-1-phenyl-2-[4-[5-(trifluoromethyl)-1,2,4-oxadiazol-3-yl]anilino]ethyl] carbamate] as the molecule, how does the pest or weed control at 200 ppm [1] read?
A: ≥ 80%

Q: For `O=C(Cc1cc(F)cc(F)c1)Nc1ccc(-c2noc(C(F)(F)F)n2)cc1` [Compound 1.117, 2-(3,5-difluorophenyl)-N-[4-[5-(trifluoromethyl)-1,2,4-oxadiazol-3-yl]phenyl]acetamide], which inhibition of growth at 20 ppm [2] is on record?
A: ≥ 80%

Q: For `C=CCON(C)C(=O)Nc1ccc(-c2noc(C(F)(F)F)n2)cc1` [Compound 2.21, 1-allyloxy-1-methyl-3-[4-[5-(trifluoromethyl)-1,2,4-oxadiazol-3-yl]phenyl]urea], which inhibition of growth at 20 ppm [2] is on record?
A: ≥ 80%

Q: With `CCOCC(=O)Nc1ccc(-c2noc(C(F)(F)F)n2)cc1` [Compound 2.10, 2-ethoxy-N-[4-[5-(trifluoromethyl)-1,2,4-oxadiazol-3-yl]phenyl] acetamide] as the molecule, how does the inhibition of growth at 20 ppm [2] read?
A: ≥ 80%

Q: How did the inhibition of growth at 20 ppm [2] turn out when `O=C(Cc1ccc(OC(F)(F)F)cc1)Nc1ccc(-c2noc(C(F)(F)F)n2)cc1` [Compound 1.119, 2-[4-(trifluoromethoxy)phenyl]-N-[4-[5-(trifluoromethyl)-1,2,4-oxadiazol-3-yl]phenyl]acetamide] was run?
A: ≥ 80%

Q: For `CC1(C)CC1C(=O)Nc1ccc(-c2noc(C(F)(F)F)n2)cc1` (stereo not drawn) [Compound 2.12, 2,2-dimethyl-N-[4-[5-(trifluoromethyl)-1,2,4-oxadiazol-3-yl]phenyl] cyclopropane-carboxamide], which inhibition of growth at 20 ppm [2] is on record?
A: ≥ 80%

Q: With `O=C(Cc1ccc(C(F)(F)F)nc1)Nc1ccc(-c2noc(C(F)(F)F)n2)cc1` [Compound 1.108, N-[4-[5-(trifluoromethyl)-1,2,4-oxadiazol-3-yl]phenyl]-2-[6-(trifluoromethyl)-3-pyridyl]acetamide] as the molecule, how does the inhibition of growth at 20 ppm [2] read?
A: ≥ 80%

Q: For `C=CCCCCC(=O)Nc1ccc(-c2noc(C(F)(F)F)n2)cc1` [Compound 1.93, N-[4-[5-(trifluoromethyl)-1,2,4-oxadiazol-3-yl]phenyl]hept-6-enamide], which inhibition of growth at 20 ppm [2] is on record?
A: ≥ 80%

Q: Which inhibition of growth at 20 ppm [2] does the source give for `O=C(Cc1cccc(C(F)(F)F)n1)Nc1ccc(-c2noc(C(F)(F)F)n2)cc1` [Compound 1.114, N-[4-[5-(trifluoromethyl)-1,2,4-oxadiazol-3-yl]phenyl]-2-[6-(trifluoromethyl)-2-pyridyl]acetamide] here?
A: ≥ 80%

Q: With `CC(Oc1ccccc1)C(=O)Nc1ccc(-c2noc(C(F)(F)F)n2)cc1` (stereo not drawn) [Compound 1.79, 2-phenoxy-N-[4-[5-(trifluoromethyl)-1,2,4-oxadiazol-3-yl]phenyl] propanamide] as the molecule, how does the inhibition of growth at 20 ppm [2] read?
A: ≥ 80%

Q: Which pest or weed control at 200 ppm [1] does the source give for `N#Cc1cc(F)c(C(=O)Nc2ccc(-c3noc(C(F)(F)F)n3)nc2)c(F)c1` [Compound 1.49, 4-cyano-2,6-difluoro-N-[6-[5-(trifluoromethyl)-1,2,4-oxadiazol-3-yl]-3-pyridyl]benzamide] here?
A: ≥ 80%

Q: Which inhibition of growth at 20 ppm [2] does the source give for `CC(C)CCC(=O)Nc1ccc(-c2noc(C(F)(F)F)n2)cc1` [Compound 1.110, 4-methyl-N-[4-[5-(trifluoromethyl)-1,2,4-oxadiazol-3-yl]phenyl] pentanamide] here?
A: ≥ 80%

Q: `O=C(Cc1ccc2c(c1)OCO2)Nc1ccc(-c2noc(C(F)(F)F)n2)nc1` [Compound 1.48, 2-(1,3-benzodioxol-5-yl)-N-[6-[5-(trifluoromethyl)-1,2,4-oxadiazol-3-yl]-3-pyridyl]acetamide] was tested. Which inhibition of growth at 20 ppm [2] did it give?
A: ≥ 80%

Q: Which pest or weed control at 200 ppm [1] does the source give for `CC=CC=CC(=O)NC1(C(=O)Nc2ccc(-c3noc(C(F)(F)F)n3)cc2)CCCC(C)C1` (stereo not drawn) [Compound 1.21, 1-(hexa-2,4-dienoylamino)-3-methyl-N-[4-[5-(trifluoromethyl)-1,2,4-oxadiazol-3-yl]phenyl]cyclo-hexanecarboxamide] here?
A: ≥ 80%
